Several values for one entry are separate records, joined by “and”; a condition that tells them apart may be missing. Equal entries are not always repeated. Where two headings read alike, the source gives them in different places.
How the values were obtained:
[1] = background statement; cited from earlier work
[2] = humans, cited from earlier work
[3] = cited from earlier work
[4] = normal volunteers; cited from earlier work
[5] = system: plasma protein; conditions: rats, cited from earlier work
[6] = Comparison of renal tracer clearances in human subjects relative to PAH (FIG. 4)
[7] = Biodistribution in Sprague-Dawley rats, percentage of injected dose (Example 6, Table 1); format: in vivo; conditions: for Percentage of injected dose in bowel: combined stomach and intestine
Method: Five samples for the 10 mins study, and six samples for the 60 mins study were used; the one sample for each time point was diluted to 100 ml, and three 1-ml portions of the resulting solution were used as standards. Each rat was anesthetized with ketamine-xylazine (2 mg/kg of body weight) injected intramuscularly, with additional supplemental anesthetic as needed. The bladder was catheterized by use of heat-flared PE-50 tubing (Becton, Dickinson and Co.) for urine collection.
A blood sample was obtained, and the heart, lungs, spleen, liver, intestines, stomach, and kidneys were removed. The whole liver was weighed, and random sections were obtained for counting. Blood, urine, whole organs, and tissue samples were placed in tubes, and each sample was weighed. […] The percentage of the dose in each tissue or organ was calculated by dividing the counts in each tissue or organ by the total injected counts, using reference counts from an accurately diluted sample of the original injection. The value given for the bowel represented combined stomach and intestine activities.

[8] = Biodistribution in normal rats, Group A (Example 7, Table 3); format: in vivo, Sprague-Dawley rats; conditions: for Percent injected dose in bowel: duodenum and colon samples; for Percent injected dose in blood: normal rats Group A, n=5
Method: (§1) Rats in both groups were anesthetized with ketamine-xylazine (2 mg/kg of body weight) injected intramuscularly, with additional supplemental anesthetic as needed. In the first group of ten normal rats (Group A), the bladder was catheterized by use of heat-flared PE-50 tubing. In the second group of six rats (Group B), the abdomen was open by a midline incision and both renal pedicles were ligated to produce a model of renal failure; thus no urine was collected.
(§2) One additional aliquot (0.2 mL) for each time point was diluted to 100 mL, and three 1-mL portions of the resulting solution were used as standards.
In Group A, 5 animals were sacrificed at 10 min, and 5 animals were sacrificed at 60 mins after injection. A blood sample was obtained, and the kidneys, heart, lungs, spleen, whole stomach and sections of the duodenum and ascending colon were removed and placed in counting vials. The whole liver was weighed, and random sections were obtained for counting. Samples of blood and urine were also placed in counting vials and weighed. […] The percentage of the dose in each tissue or organ was calculated by dividing the counts in each tissue or organ by the total injected counts. The percentage injected dose reported for the bowel was based on the combined counts of the duodenum and colon samples.

[9] = Biodistribution in rats with renal pedicle ligation (renal failure model), Group B; format: in vivo, Sprague-Dawley rats; conditions: 60 min
Method: as §1, §2
The 6 Group B rats were sacrificed 60 mins after injection. Selected organs, blood, and all of the small and large intestines were collected and counted as described above. The percentage injected dose reported for the bowel was based on the combined counts in the small and large intestines.

[10] = Renal (plasma) clearance at steady-state infusion in rats; format: in vivo; conditions: steady-state co-infusion, average of three 10-min periods
Method: Two male rats were anesthetized as described above and placed on a heated surgical table. Following tracheostomy, the left jugular vein was cannulated with two pieces of PE-50 tubing (one for infusion of radiopharmaceuticals and one to infuse normal saline (5.8 mL/h) to maintain hydration and additional anesthetic (5 mg/h) as necessary). The right carotid artery was cannulated for blood sampling and the bladder was catheterized by use of PE-50 tubing. The core temperature of each animal was continually monitored throughout the study using a rectal temperature probe. […] (3.7 MBq/mL [100 μCi/mL]) and ^131I-OIH (1.85 MBq/mL [50 μCi/mL]), were co-infused at a flow rate of 1.7 ml/h for 60 mins to establish steady-state blood levels. […] The blood samples were centrifuged for 15 mins and plasma samples were obtained. Plasma clearance (CI) was determined by utilizing the equation: CI (mL/min)=UV/P, where U is the urine radioactivity concentration, V is the urine volume excreted per minute and P is the plasma radioactivity concentration.

[11] = Renal extraction fraction in rats (arterial vs renal venous plasma); format: in vivo
Method: The extraction fraction (EF) was measured at the conclusion of the clearance measurements by obtaining a left renal venous blood sample (0.5 mL) followed immediately by a carotid artery sample (3 mL). Both blood samples were centrifuged immediately after collection to obtain plasma samples. EF was calculated by measuring the difference between the arterial and venous plasma sample: EF=(arterial concentration−venous concentration)/arterial concentration.

[12] = system: plasma protein; assay: Plasma protein binding by ultrafiltration, rat plasma; format: in vitro ADME; conditions: rats
Method: (§3) Arterial blood samples were placed in capillary tubes and centrifuged to determine the hematocrit. Samples of the whole blood and packed cells (about 0.3 mL each) were pipetted into counting tubes, weighed, and counted. The percent uptake in the erythrocytes was calculated from the whole blood (counts/g) and packed cells (counts/g). Percent erythrocyte uptake=[(counts/g in erythrocytes×hematocrit)/counts/g in whole blood]. No correction was made for plasma trapped in the red blood cells sample. PPB and erythrocyte uptake were calculated in duplicate and the mean values reported.

[13] = system: erythrocytes; assay: Erythrocyte uptake, rat blood; format: in vitro ADME; conditions: rats
Method: as §3

[14] = Plasma clearance in healthy volunteers (single injection, two-compartment model); format: in vivo, human; conditions: normal volunteers (n=5), individual values and mean
Excerpt: Inclusion criteria required the absence of any history of kidney and bladder diseases and a normal review of systems. Pregnancy was excluded in females by means of a urine pregnancy test.

[15] = system: plasma protein; assay: Plasma protein binding in healthy volunteers; format: in vitro ADME, human; conditions: normal volunteers, individual values and mean
[16] = system: red blood cells; assay: Red cell uptake in healthy volunteers; format: in vitro ADME, human; conditions: normal volunteers, individual values and mean
[17] = normal volunteers
[18] = system: red blood cells; conditions: human blood, equilibrium conditions; cited from earlier work
[19] = Safety in healthy volunteers (vital signs, CBC, chemistry panel, urinalysis); format: in vivo, human; conditions: about 74 MBq, pre- and 24 hr post-injection
Excerpt: Five healthy volunteers (3 male, 2 females; mean age±SD, 39.4±12.7 yrs; range 20-55 yrs) participated in this study. Inclusion criteria required the absence of any history of kidney and bladder diseases and a normal review of systems. Pregnancy was excluded in females by means of a urine pregnancy test.

[20] = cited from earlier work; remark: listed apart in the source
[21] = Cysteine and histidine challenge at 37 C (HPLC); conditions: 0.1 M cysteine and histidine, 4 h, listed as Na2[^99mTc(CO)3(NTA)]
Method: (§4) The buffered solution was evaluated by HPLC at 24 h to assess stability. […] (0.1 mL) were mixed with 0.1 M solutions of histidine and cysteine (0.9 mL) and incubated at 37° C.; aliquots were analyzed by HPLC at 1, 2 and 4 h to evaluate decomposition.

[22] = In vitro stability in physiological phosphate buffer pH 7.4 (HPLC); conditions: phosphate buffer pH 7.4, 24 h, listed as Na2[^99mTc(CO)3(NTA)]
Method: as §4

O=C([O-])CN(CCN(CC(=O)[O-])CC(=O)[O-])CCN(CC(=O)[O-])CC(=O)[O-].[99Tc+4] [^99mTc-DTPA]
Extraction fraction (EF) [1]: 20%

O=C([O-])CN=C([O-])CN=C([O-])CN=C([O-])C[S-].[O-2].[Tc+4] [^99mTc-MAG3, technetium-99m mercaptoacetyltriglycine]
Clearance as multiple of the clearance of 99mTc-DTPA [2]: 2-2.5 times | Hepatobiliary clearance ([3]; fasting rats): 11.7% | Hepatobiliary clearance ([3]; rats with free access to food): 6.6% | Injected dose transported into the small intestine via the hepatobiliary system [4]: 0.5-1.0% | Protein binding ([5]; before infusion): 78% | Protein binding ([5]; following PAH infusion): 44% | Protein binding ([5]; following ammonium chloride infusion): 63% | Protein binding ([5]; following mannitol infusion): 42% | Protein binding ([5]; following sodium bicarbonate infusion): 65% | Extraction fraction (EF) [1]: 50-60% | Clearance relative to PAH (PAH assigned 100%) [6]: substantially less than that of PAH | Clearance relative to PAH (PAH assigned 100%) ([6]; listed as 99mTcMAG3): substantially less

O=C(O)CNC(=O)c1ccccc1[131I] [^131I-OIH, ^131I-ortho-iodohippurate]
Percentage of injected dose in heart ([7]; 10 min): 0.2 ± 0.1% | Percentage of injected dose in kidney ([7]; 10 min): 5.6 ± 0.6% | Percentage of injected dose in liver ([7]; 10 min): 4.0 ± 0.7% | Percentage of injected dose in lung ([7]; 10 min): 0.5 ± 0.2% | Percentage of injected dose in urine ([7]; 10 min): 53.2 ± 7.2% | Percentage of injected dose in bowel ([7]; 10 min): 2.5 ± 0.5% | Percentage of injected dose in blood ([7]; 10 min post-injection, n=5): 5.6 ± 1.0% | Percentage of injected dose in heart ([7]; 60 min): 0.0 ± 0.0% | Percentage of injected dose in kidney ([7]; 60 min): 0.5 ± 0.0% | Percentage of injected dose in liver ([7]; 60 min): 0.7 ± 0.2% | Percentage of injected dose in lung ([7]; 60 min): 0.1 ± 0.1% | Percentage of injected dose in urine ([7]; 60 min): 91.4 ± 3.7% | Percentage of injected dose in bowel ([7]; 60 min): 1.7 ± 0.7% | Percentage of injected dose in blood ([7]; 60 min post-injection, n=6): 0.5 ± 0.0% | Percent injected dose in kidney ([8]; Group A, 10 min): 5.6 ± 0.6% | Percent injected dose in liver ([8]; Group A, 10 min): 4.0 ± 0.7% | Percent injected dose in urine ([8]; Group A, 10 min): 53.2 ± 7.2% | Percent injected dose in bowel ([8]; Group A, 10 min): 2.2 ± 0.4% | Mean total injected activity present in heart, lungs, spleen, blood and liver ([8]; Group A, 60 min): 1.1% | Percent injected dose in kidney ([8]; Group A, 60 min): 0.5 ± 0.0% | Percent injected dose in liver ([8]; Group A, 60 min): 0.6 ± 0.3% | Percent injected dose in urine ([8]; Group A, 60 min): 91.4 ± 3.7% | Percent injected dose in bowel ([8]; Group A, 60 min): 1.0 ± 0.5% | Percent injected dose in blood ([8]; 10 min): 5.6 ± 1.0% | Percent injected dose in blood ([8]; 60 min): 0.5 ± 0.0% | Percent injected dose in kidney ([9]; Group B): 0.8 ± 0.2% | Percent injected dose in liver ([9]; Group B): 9.7 ± 1.7% | Percent injected dose in bowel ([9]; Group B, small and large intestines): 14.6% and 14.6 ± 2.8% | Percent injected dose in blood ([9]; renal pedicle ligation Group B, n=6): 15.1% and 15.1 ± 0.9% | Plasma clearance [10]: 2.96 mL/min/100 g | Extraction fraction [11]: 67.9±6.1% and 67.9% | Plasma protein binding [12]: 44±10% | Erythrocyte (red cell) uptake [13]: 35±1% and 35% | Plasma clearance, Cl [14]: 482 mL/min and 423.4 mL/min and 433.4 mL/min and 481.94 mL/min and 497.49 mL/min and 442 mL/min and 613.4 mL/min | PPB (plasma protein binding) [15]: 77% and 74% and 79% | RBC (red cell uptake) [16]: 20% and 15% and 21% and 25% and 24% and 14% | Urine 30 min (percent dose excreted) ([17]; 30 minutes): 80% and 74% and 78% and 55% and 64% | Urine (percent dose in urine) ([17]; collection time not given (voids at 30, 90, 180 min)): 98% and 93% and 96% and 83% and 81% | Fraction bound to or inside red blood cells [18]: 15-20% | Clearance relative to PAH (PAH assigned 100%) [6]: about 90%

^99mTc-DD-ethylene dicysteine
Clearance as percent of that of PAH ([2]; literature): 60-65%

technetium-99m tricarbonyl-nitrilotriacetic acid [^99mTc(CO)3(NTA)]
Plasma clearance [10]: 3.08 mL/min/100 g | Erythrocyte (red cell) uptake ([13]; listed as Na2[^99mTc(CO)3(NTA)]): 7±2% and 7% | Plasma clearance, Cl [14]: 480 mL/min | Plasma clearance, Cl ([14]; listed as 99mTc-NTA): 477.1 mL/min and 607.9 mL/min and 388.5 mL/min and 434.2 mL/min and 491.8 mL/min | Plasma clearance, Cl ([14]; listed as 99mTc-NTA, mean): 479.90 mL/min | PPB (plasma protein binding) [15]: 45% | PPB (plasma protein binding) ([15]; listed as 99mTc-NTA): 39% and 40% and 50% and 42% and 53% | RBC (red cell uptake) [16]: 12% | RBC (red cell uptake) ([16]; listed as 99mTc-NTA): 6% and 15% and 20% and 16% and 4% | RBC (red cell uptake) ([16]; listed as 99mTc-NTA, mean): 12% | Toxicity (blood pressure, heart rate, temperature, CBC, chemistry panel, urine analysis) [19]: no evidence of any toxicity | pKa of the pendant carboxylic acid [20]: approximately 3 | Stability to cysteine and histidine challenge [21]: no degradation | Stability at physiological pH [22]: stable for 24 h | Clearance relative to PAH (PAH assigned 100%) [6]: about 90%

Source: patent publication US9061077B2 (Emory University, priority 2008, dated 2015)
